Measured values as given in US12319672B2, “Alpha-D-galactopyranoside derivatives” (Idorsia Pharmaceuticals Ltd, priority 2019, dated 2025).

What was measured:
human Gal-1 (hGal-1) = test: Competitive binding assay: binding of biotinylated hGal-1 to microplate-adsorbed asialofetuin (ASF); conditions: Activities on hGal-1; mean values of several measurements
Method: (§1) Evaluation of Compound Inhibitory Activity (IC50)
(§2) The inhibitory activity of compounds is determined in competitive binding assays. This spectrophotometric assay measures the binding of biotinylated human Gal-3 (hGal-3) or human Gal-1 (hGal-1), respectively, to a microplate-adsorbed glycoprotein, asialofetuin (ASF) (Proc Natl Acad Sci USA. 2013 Mar. 26; 110(13):5052-7.). Alternatively, and preferably, a human Gal-1 version in which all six cysteines are substituted by serines may be used.
(§3) Briefly, compounds are serially diluted in DMSO (working dilutions). ASF-coated 384 well plates are supplemented with 22.8 μL/well of biotinylated hGal-3 or hGal-1 in assay buffer (i.e. 300-1000 ng/mL biotinylated hGal-3 or hGal-1) to which 1.2 μL of compound working dilutions are added and mixed.
(§4) Plates are incubated for 3 hours at 4° C., then washed with cold assay buffer (3×50 uL), incubated for 1 hour with 25 μL/well of a streptavidin-peroxidase solution (diluted in assay buffer to 80 ng/mL) at 4° C., followed by further washing steps with assay buffer (3×50 uL). Finally, 25 μL/well of ABTS substrate is added.
(§5) The calculated IC50 values may fluctuate depending on the daily assay performance. Fluctuations of this kind are known to those skilled in the art. IC50 values from several measurements are given as mean values.

human Gal-3 (hGal-3) = human Gal-3 (hGal-3) (Homo sapiens (Human), UniProt P17931); test: Competitive binding assay: binding of biotinylated hGal-3 to microplate-adsorbed asialofetuin (ASF); conditions: Activity on hGal-3; mean values of several measurements
Method: as §1, §2, §3, §4, §5

Sequence of human Gal-1 (hGal-1) (P09382 2-135 limits assumed): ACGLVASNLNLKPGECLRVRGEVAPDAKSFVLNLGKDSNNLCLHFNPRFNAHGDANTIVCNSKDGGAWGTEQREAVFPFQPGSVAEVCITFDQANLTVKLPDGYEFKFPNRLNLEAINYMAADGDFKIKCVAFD
Sequence of human Gal-3 (hGal-3) (P17931 whole entry): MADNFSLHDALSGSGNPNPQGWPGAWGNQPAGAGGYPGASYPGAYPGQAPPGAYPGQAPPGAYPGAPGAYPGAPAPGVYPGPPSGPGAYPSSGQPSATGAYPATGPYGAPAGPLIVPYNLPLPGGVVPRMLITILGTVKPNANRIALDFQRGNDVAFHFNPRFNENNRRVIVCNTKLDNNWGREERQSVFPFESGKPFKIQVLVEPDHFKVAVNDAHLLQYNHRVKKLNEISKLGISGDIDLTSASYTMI

| IC50 (human Gal-1 (hGal-1)) | IC50 (human Gal-3 (hGal-3)) | Structure (SMILES) |
| --- | --- | --- |
| 610 nM | 46 nM | COC(=O)N1CCC(c2cc(C[C@H]3O[C@H](CO)[C@H](O)[C@H](n4cc(-c5cc(F)c(F)c(F)c5)nn4)[C@H]3OC)no2)CC1 [Example 3.32, methyl 4-(3-(((2R,3R,4S,5R,6R)-5-hydroxy-6-(hydroxymethyl)-3-methoxy-4-(4-(3,4,5-trifluorophenyl)-1H-1,2,3-triazol-1-yl)tetrahydro-2H-pyran-2-yl)methyl)isoxazol-5-yl)piperidine-1-carboxylate] |
| 8140 nM | 1160 nM | CO[C@@H]1[C@@H](n2cc(-c3cc(F)c(F)c(F)c3)nn2)[C@@H](O)[C@@H](CO)O[C@@H]1CC1=NOC(C2CCNCC2)C1 (mixture of isomers) [Example 3.36, (2R,3R,4S,5R,6R)-2-(hydroxymethyl)-5-methoxy-6-(((RS)-5-(piperidin-4-yl)-4,5-dihydroisoxazol-3-yl)methyl)-4-(4-(3,4,5-trifluorophenyl)-1H-1,2,3-triazol-1-yl)tetrahydro-2H-pyran-3-ol] |
| 4500 nM | 650 nM | CO[C@@H]1[C@@H](n2cc(-c3cc(F)c(F)c(F)c3)nn2)[C@@H](O)[C@@H](CO)O[C@@H]1Cc1cc(C2CCNC2)on1 (mixture of isomers) [Example 2.08, (2R,3R,4S,5R,6R)-2-(hydroxymethyl)-5-methoxy-6-((5-((RS)-pyrrolidin-3-yl)isoxazol-3-yl)methyl)-4-(4-(3,4,5-trifluorophenyl)-1H-1,2,3-triazol-1-yl)tetrahydro-2H-pyran-3-ol] |
| 15000 nM | 240 nM | CO[C@@H]1[C@@H](n2cc(-c3cc(F)c(F)c(F)c3)nn2)[C@@H](O)[C@@H](CO)O[C@@H]1Cn1cc(C(C)(C)O)nn1 [Example 4.44, (2R,3R,4S,5R,6R)-2-(hydroxymethyl)-6-((4-(2-hydroxypropan-2-yl)-1H-1,2,3-triazol-1-yl)methyl)-5-methoxy-4-(4-(3,4,5-trifluorophenyl)-1H-1,2,3-triazol-1-yl)tetrahydro-2H-pyran-3-ol] |
| 92 nM | 26 nM | CCOC(=O)N1CCC(N2CN(C[C@H]3O[C@H](CO)[C@H](O)[C@H](n4cc(-c5cc(F)c(F)c(F)c5)nn4)[C@H]3OC)CC2=O)CC1 [Example 6.11, ethyl 4-(3-(((2R,3R,4S,5R,6R)-5-hydroxy-6-(hydroxymethyl)-3-methoxy-4-(4-(3,4,5-trifluorophenyl)-1H-1,2,3-triazol-1-yl)tetrahydro-2H-pyran-2-yl)methyl)-5-oxoimidazolidin-1-yl)piperidine-1-carboxylate] |
| 230 nM | 31 nM | CO[C@@H]1[C@@H](n2cc(-c3cc(F)c(F)c(F)c3)nn2)[C@@H](O)[C@@H](CO)O[C@@H]1Cc1cc(C2CCN(C(=O)NC(C)(C)C)CC2)on1 [Example 3.52, N-(tert-butyl)-4-(3-(((2R,3R,4S,5R,6R)-5-hydroxy-6-(hydroxymethyl)-3-methoxy-4-(4-(3,4,5-trifluorophenyl)-1H-1,2,3-triazol-1-yl)tetrahydro-2H-pyran-2-yl)methyl)isoxazol-5-yl)piperidine-1-carboxamide] |
| 150 nM | 40 nM | CO[C@@H]1[C@@H](n2cc(-c3cccc(F)c3)nn2)[C@@H](O)[C@@H](CO)O[C@@H]1Cc1cn(C2CCN(C(=O)OCc3ccccc3)CC2)nn1 [Example 4.35, benzyl 4-(4-(((2R,3R,4S,5R,6R)-4-(4-(3-fluorophenyl)-1H-1,2,3-triazol-1-yl)-5-hydroxy-6-(hydroxymethyl)-3-methoxytetrahydro-2H-pyran-2-yl)methyl)-1H-1,2,3-triazol-1-yl)piperidine-1-carboxylate] |
| 490 nM | 37 nM | CO[C@@H]1[C@@H](n2cc(-c3cc(F)c(F)c(F)c3)nn2)[C@@H](O)[C@@H](CO)O[C@@H]1Cc1cc(C2CCN(S(C)(=O)=O)CC2)on1 [Example 3.45, (2R,3R,4S,5R,6R)-2-(hydroxymethyl)-5-methoxy-6-((5-(1-(methylsulfonyl)piperidin-4-yl)isoxazol-3-yl)methyl)-4-(4-(3,4,5-trifluorophenyl)-1H-1,2,3-triazol-1-yl)tetrahydro-2H-pyran-3-ol] |
| 4020 nM | 670 nM | CO[C@@H]1[C@@H](n2cc(-c3cc(F)c(F)c(F)c3)nn2)[C@@H](O)[C@@H](CO)O[C@@H]1C[C@H]1CC(C2CCN(C(C)=O)CC2)=NO1 [Example 3.13, 1-(4-((R)-5-(((2R,3R,4S,5R,6R)-5-hydroxy-6-(hydroxymethyl)-3-methoxy-4-(4-(3,4,5-trifluorophenyl)-1H-1,2,3-triazol-1-yl)tetrahydro-2H-pyran-2-yl)methyl)-4,5-dihydroisoxazol-3-yl)piperidin-1-yl)ethan-1-one] |

The next lines start with the molecule.

| Structure (SMILES) | IC50 (human Gal-1 (hGal-1)) | IC50 (human Gal-3 (hGal-3)) |
| --- | --- | --- |
| CO[C@@H]1[C@@H](n2cc(-c3ccc(C)c(F)c3F)nn2)[C@@H](O)[C@@H](CO)O[C@@H]1Cc1cc(C2(C)COC2)no1 [Ex 1.256] | 1560 nM | 55 nM |
| CO[C@@H]1[C@@H](n2cc(-c3cc(F)c(F)c(F)c3)nn2)[C@@H](O)[C@@H](CO)O[C@@H]1C[C@H]1CC(c2ccc3[nH]c(=O)oc3c2)=NO1 [Ex 1.29] | > 100000 nM | 2140 nM |
| COc1cc(C2=NOC(C[C@H]3O[C@H](CO)[C@H](O)[C@H](n4cc(-c5cc(F)c(F)c(F)c5)nn4)[C@H]3O)C2)ccn1 (stereo partly drawn) [Ex 1.24] | 13300 nM | 800 nM |
| CO[C@@H]1[C@@H](n2cc(-c3ccc(F)c(F)c3F)nn2)[C@@H](O)[C@@H](CO)O[C@@H]1Cc1cc(C(C)(C)O)on1 [Ex 1.232] | 970 nM | 100 nM |
| CCOC(=O)N1CCC(c2cc(C[C@H]3O[C@H](CO)[C@H](O)[C@H](n4cc(-c5ccc(Br)c(F)c5F)nn4)[C@H]3OC)no2)CC1 [Ex 1.198] | 3590 nM | 47 nM |
| CO[C@@H]1[C@@H](n2cc(-c3cc(F)c(F)c(F)c3)nn2)[C@@H](O)[C@@H](CO)O[C@@H]1Cc1cc(C2CCC(F)(F)CC2)on1 [Ex 1.79] | 4240 nM | 270 nM |
| CO[C@@H]1[C@@H](n2cc(-c3cc(F)c(F)c(F)c3)nn2)[C@@H](O)[C@@H](CO)O[C@@H]1Cc1cc(C2(O)CCCC2)no1 [Ex 1.312] | 4240 nM | 140 nM |
| CCCCO[C@@H]1[C@@H](n2cc(-c3cc(F)c(F)c(F)c3)nn2)[C@@H](O)[C@@H](CO)O[C@@H]1Cc1cc(C2CCN(C(=O)OC(C)(C)C)CC2)on1 [Example 2.20, tert-butyl 4-(3-(((2R,3R,4S,5R,6R)-3-butoxy-5-hydroxy-6-(hydroxymethyl)-4-(4-(3,4,5-trifluorophenyl)-1H-1,2,3-triazol-1-yl)tetrahydro-2H-pyran-2-yl)methyl)isoxazol-5-yl)piperidine-1-carboxylate] | 2030 nM | 390 nM |
| OC[C@H]1O[C@H](CC2CC(c3ccc4[nH]ncc4c3)=NO2)[C@H](O)[C@@H](n2cc(-c3cc(F)c(F)c(F)c3)nn2)[C@H]1O (stereo partly drawn) [Ex 1.34] | 10600 nM | 880 nM |
| COc1ccc(C2=NOC(C[C@@H]3O[C@H](CO)[C@H](O)[C@H](n4cc(-c5cc(F)c(F)c(F)c5)nn4)[C@H]3O)C2)cc1 (stereo partly drawn) [Ex 1.88] | 22200 nM | 6230 nM |
| CO[C@@H]1[C@@H](n2cc(-c3cc(F)c(F)c(F)c3)nn2)[C@@H](O)[C@@H](CO)O[C@@H]1Cc1cc(-c2ccn(C)c(=O)c2)on1 [Ex 1.119] | 4170 nM | 260 nM |
| CO[C@@H]1[C@@H](n2cc(-c3cc(F)c(F)c(F)c3)nn2)[C@@H](O)[C@@H](CO)O[C@@H]1C[C@H]1CC(C2CCN(C(=O)OC(C)(C)C)CC2)=NO1 [Ex 1.47] | 6540 nM | 660 nM |
